Experimental data reported in paper PMC8634040, “The multi-target aspect of an MmpL3 inhibitor: The BM212 series of compounds bind EthR2, a transcriptional regulator of ethionamide activation” (The Cell Surface, 2021).

Columns and labels:
[1] = target: EthR2 (Rv0078) (Mycobacterium tuberculosis, UniProt O53623); experiment: biochemical; format: binding
[2] = target: T1, BCG_0109 (EthR2) (Mycobacterium tuberculosis, UniProt O53623); experiment: chemoproteomic competition with immobilised GSK569A/GSK574A beads, TMT LC-MS/MS; IC50 […]; format: biochemical
T1 construct: gene Rv0078

[3] = target: T2, BCG_0174 (SnoaL-like domain-containing, ortholog to Rv0138) (Mycobacterium tuberculosis, UniProt A0A679LAM0); experiment: as above; format: biochemical
T2 construct: gene BQ2027_MB0143
T2 sequence (A0A679LAM0 entry or part of it): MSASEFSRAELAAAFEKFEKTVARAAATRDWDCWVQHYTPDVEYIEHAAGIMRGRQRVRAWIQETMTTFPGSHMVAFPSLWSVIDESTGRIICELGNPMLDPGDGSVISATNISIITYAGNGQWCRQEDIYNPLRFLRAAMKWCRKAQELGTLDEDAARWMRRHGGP

EthR2 (Rv0078), sequence (O53623 entry or part of it): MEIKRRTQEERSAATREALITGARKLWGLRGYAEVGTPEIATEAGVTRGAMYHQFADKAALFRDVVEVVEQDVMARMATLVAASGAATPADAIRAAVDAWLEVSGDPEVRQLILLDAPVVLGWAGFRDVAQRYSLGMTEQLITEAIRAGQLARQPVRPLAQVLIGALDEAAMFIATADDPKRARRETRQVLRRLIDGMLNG
T1 sequence (O53623 entry or part of it): as above

Row | SMILES | Kd [1] | Kd [2] | Kd [3]
1 | Cc1c(CN2CCN(C)CC2)cc(-c2ccc(Cl)cc2)n1-c1ccc(Cl)cc1 [BM212, 1-((1,5-bis(4-chlorophenyl)-2-methyl-1H-pyrrol-3-yl)methyl)-4-methylpiperazine] | 660 nM | – | –
2 | Cc1c(CN2CCN(C)CC2)cc(-c2ccc(C(C)C)cc2)n1-c1ccc(F)cc1 [GSK074A, 1-((1-(4-Fluorophenyl)-5-(4-isopropylphenyl)-2-methyl-1H-pyrrol-3-yl)methyl)-4-methylpiperazine] | – | 2900 nM | 7300 nM
